Drawing on ChEMBL document CHEMBL4421728, “Bach1 Inhibitors in Combination with Nrf2 Activators and Pharmaceutical Compositions Thereof” (2017), this text covers Activity and fold change (FC) for three molecules.

Assay [1] has as its target T1, Transcription regulator protein BACH1 (Homo sapiens) (UniProt O14867).
T1 sequence (whole entry): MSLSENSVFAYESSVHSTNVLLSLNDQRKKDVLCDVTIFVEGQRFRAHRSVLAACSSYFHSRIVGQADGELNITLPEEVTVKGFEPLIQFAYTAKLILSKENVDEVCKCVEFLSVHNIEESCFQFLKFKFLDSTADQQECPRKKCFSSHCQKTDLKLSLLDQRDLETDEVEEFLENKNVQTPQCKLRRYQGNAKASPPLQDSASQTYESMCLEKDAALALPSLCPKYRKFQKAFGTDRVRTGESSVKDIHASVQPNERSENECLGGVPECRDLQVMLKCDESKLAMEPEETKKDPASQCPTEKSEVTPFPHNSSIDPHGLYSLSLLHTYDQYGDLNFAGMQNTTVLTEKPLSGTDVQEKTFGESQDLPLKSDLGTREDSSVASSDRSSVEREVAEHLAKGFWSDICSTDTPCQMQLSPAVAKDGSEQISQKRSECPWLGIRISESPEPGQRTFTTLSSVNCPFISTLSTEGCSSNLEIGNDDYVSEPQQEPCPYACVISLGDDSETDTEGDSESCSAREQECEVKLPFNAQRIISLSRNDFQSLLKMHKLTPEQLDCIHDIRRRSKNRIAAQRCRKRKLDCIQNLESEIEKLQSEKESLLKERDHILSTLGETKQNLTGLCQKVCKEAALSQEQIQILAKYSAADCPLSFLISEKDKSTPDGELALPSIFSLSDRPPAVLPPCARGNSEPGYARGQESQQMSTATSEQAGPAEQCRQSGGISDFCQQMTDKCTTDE
Nature of the assay: Inhibition of Bach1 in normal human lung fibroblasts assessed as induction of HMOX protein expression by measuring HMOX positive cells level at 0.039 uM in presence of 1 uM Nrf2 activator DMF incubated for 16 to 18 hrs by immunostaining relative to control DMSO. Further details: scale not given: the % may be the effect or the level left.

Assay [2] deals with T1, Transcription regulator protein BACH1 (Homo sapiens). Nature of the assay: Inhibition of Bach1 in normal human lung fibroblasts assessed as induction of HMOX protein expression at 0.078 uM in presence of 0.3 uM Nrf2 activator DMF incubated for 16 to 18 hrs by immunostaining relative to control.
Assay [3] has the same target. In words: Inhibition of Bach1 in normal human lung fibroblasts assessed as induction of HMOX protein expression at 0.039 uM in presence of 3 uM Nrf2 activator DMF incubated for 16 to 18 hrs by immunostaining relative to control.
Assay [4] has the same target. Nature of the assay: Inhibition of Bach1 in normal human lung fibroblasts assessed as induction of HMOX protein expression by measuring HMOX positive cells level at 0.156 uM in presence of 30 uM Nrf2 activator DMF incubated for 16 to 18 hrs by immunostaining relative to control DMSO. Also noted: scale not given: the % may be the effect or the level left.
Assay [5] has the same target. In words: Inhibition of Bach1 in normal human lung fibroblasts assessed as induction of HMOX protein expression at 0.019 uM in presence of 0.1 uM Nrf2 activator DMF incubated for 16 to 18 hrs by immunostaining relative to control.
The target is the same in assay [6]. Nature of the assay: Inhibition of Bach1 in normal human lung fibroblasts assessed as induction of HMOX protein expression at 0.156 uM in presence of 1 uM Nrf2 activator DMF incubated for 16 to 18 hrs by immunostaining relative to control.
Assay [7] has the same target. Nature of the assay: Inhibition of Bach1 in normal human lung fibroblasts assessed as induction of HMOX protein expression at 0.156 uM in presence of 0.1 uM Nrf2 activator DMF incubated for 16 to 18 hrs by immunostaining relative to control.
Assay [8] shares this target. Nature of the assay: Inhibition of Bach1 in normal human lung fibroblasts assessed as induction of HMOX protein expression at 0.019 uM in presence of 3 uM Nrf2 activator DMF incubated for 16 to 18 hrs by immunostaining relative to control.
Assay [9] shares this target. Nature of the assay: Inhibition of Bach1 in normal human lung fibroblasts assessed as induction of HMOX protein expression at 0.156 uM in presence of 3 uM Nrf2 activator DMF incubated for 16 to 18 hrs by immunostaining relative to control.
For assay [10] the target is unchanged. In words: Inhibition of Bach1 in normal human lung fibroblasts assessed as induction of HMOX protein expression by measuring HMOX positive cells level at 0.039 uM in presence of 0.03 uM Nrf2 activator DMF incubated for 16 to 18 hrs by immunostaining relative to control DMSO. Also noted: scale not given: the % may be the effect or the level left.
Assay [11] has the same target. In words: Inhibition of Bach1 in normal human lung fibroblasts assessed as induction of HMOX protein expression at 0.039 uM in presence of 0.1 uM Nrf2 activator DMF incubated for 16 to 18 hrs by immunostaining relative to control.
The target is the same in assay [12]. In words: Inhibition of Bach1 in normal human lung fibroblasts assessed as induction of HMOX protein expression at 0.019 uM in presence of 0.3 uM Nrf2 activator DMF incubated for 16 to 18 hrs by immunostaining relative to control.
The target is the same in assay [13]. In words: Inhibition of Bach1 in normal human lung fibroblasts assessed as induction of HMOX protein expression at 0.156 uM in presence of 10 uM Nrf2 activator DMF incubated for 16 to 18 hrs by immunostaining relative to control.
For assay [14] the target is unchanged. In words: Inhibition of Bach1 in normal human lung fibroblasts assessed as induction of HMOX protein expression by measuring HMOX positive cells level at 0.039 uM in presence of 10 uM Nrf2 activator DMF incubated for 16 to 18 hrs by immunostaining relative to control DMSO. Further details: scale not given: the % may be the effect or the level left.
Assay [15] shares this target. In words: Inhibition of Bach1 in normal human lung fibroblasts assessed as induction of HMOX protein expression at 0.019 uM in presence of 1 uM Nrf2 activator DMF incubated for 16 to 18 hrs by immunostaining relative to control.
Assay [16] has the same target. Nature of the assay: Inhibition of Bach1 in normal human lung fibroblasts assessed as induction of HMOX protein expression by measuring HMOX positive cells level at 0.019 uM in presence of 1 uM Nrf2 activator DMF incubated for 16 to 18 hrs by immunostaining relative to control DMSO. Also noted: scale not given: the % may be the effect or the level left.
The target is the same in assay [17]. In words: Inhibition of Bach1 in normal human lung fibroblasts assessed as induction of HMOX protein expression at 0.039 uM in presence of 0.03 uM Nrf2 activator DMF incubated for 16 to 18 hrs by immunostaining relative to control.
Assay [18] has the same target. Nature of the assay: Inhibition of Bach1 in normal human lung fibroblasts assessed as induction of HMOX protein expression at 0.156 uM in presence of 30 uM Nrf2 activator DMF incubated for 16 to 18 hrs by immunostaining relative to control.
Assay [19] shares this target. In words: Inhibition of Bach1 in normal human lung fibroblasts assessed as induction of HMOX protein expression by measuring HMOX positive cells level at 0.039 uM in presence of 0.1 uM Nrf2 activator DMF incubated for 16 to 18 hrs by immunostaining relative to control DMSO. Also noted: scale not given: the % may be the effect or the level left.
Assay [20] shares this target. In words: Inhibition of Bach1 in normal human lung fibroblasts assessed as induction of HMOX protein expression by measuring HMOX positive cells level at 0.039 uM in presence of 0.3 uM Nrf2 activator DMF incubated for 16 to 18 hrs by immunostaining relative to control DMSO. Further details: scale not given: the % may be the effect or the level left.

`Cn1c(Nc2nc3ccc(C(F)(F)F)cc3s2)nc2cc(C(=O)NCCOCCO)ccc21`: the Activity in assay [1] turned out to be 38.7%; in assay [4] it was 92.2%; in assay [10], 11.9%; in [14], 99.2%; in [16] it was 26.4%; in [19] it was 6.75%. In addition, in [20], the Activity turned out to be 18.7%. The fold change (FC) in assay [2] is 3.21; in assay [3] it was 4; in [5], 1.23; in assay [6] it was 6.04; in assay [7] it was 4.89; in assay [8] it was 3.55. Also, the fold change (FC) was 7.69 in [9]; 1.52 in [11]; 1.44 in assay [12]; 7.5 in assay [13]; 2.17 in assay [15]; 1.81 in assay [17]. Further, the fold change (FC) in assay [18] is 6.18.

`CN(C)C(=O)CNC(=O)c1ccc2c(c1)nc(Nc1nc3ccc(C(F)(F)F)cc3s1)n2C`: the Activity was 23.5% in assay [1]; 84% in assay [4]; 5.74% in [10]; 94.7% in [14]; 10.2% in [16]; 6.82% in assay [19]. Further, the Activity in assay [20] was determined as 12.8%. Besides, the fold change (FC) in assay [2] turned out to be 1.73; in assay [3], 3.01; in assay [5], 1.15; in assay [6] it was 4.08; in assay [7], 2.54; in [8] it was 2.86. The fold change (FC) worked out at 4.57 in assay [9]; 1.35 in assay [11]; 1.24 in assay [12]; 6.55 in [13]; 1.68 in assay [15]; 1.28 in assay [17]. Moreover, the fold change (FC) in assay [18] is 5.49.

Regarding `COCCNC(=O)c1cnc2c(c1)nc(Nc1nc3ccc(OC(F)(F)F)cc3s1)n2C`, the Activity in assay [1] was 23.1%; in assay [4], 98.2%; in [10] it was 1.53%; in assay [14] it was 92%; in [16], 7.52%; in [19], 2.54%. In assay [20], the Activity is 13%. The fold change (FC) in [2] came out at 1.43; in assay [3], 2.84; in [5], 1.13; in assay [6], 2.87; in [7], 1.73; in assay [8] it was 2.98. The fold change (FC) turned out to be 3.63 in assay [9]; 1.08 in assay [11]; 1.43 in assay [12]; 5.58 in assay [13]; 1.57 in [15]; 1.07 in assay [17]. Also, in assay [18], the fold change (FC) turned out to be 4.99.
